{
  "source": "patent US20160158308A1",
  "about": "(priority 2013, published 2016)",
  "origin": "cited, not measured here",
  "key": {"[1]": {"tested_on": "Mycobacterium tuberculosis", "details": "NAC at 10 millimolar"}, "[2]": {"details": "rat liver, CO-60, water control = 0% removal"}},
  "note": "Where two headings read alike, the source gives them in different places.",
  "data": [
    {"smiles": "CC(=O)N[C@@H](CS)C(=O)O", "note": "[NAC, N-acetyl cysteine]", "values": [
      {"measurement": "M. tuberculosis CFU/ml", "setting": "[1]", "value": "8,000 CFU/ml"}
    ]},
    {"smiles": "N[C@@H](CCC(=O)N[C@@H](CS)C(=O)NCC(=O)O)C(=O)O", "note": "[Plain glutathione, glutathione]", "values": [
      {"measurement": "removal of the toxin", "setting": "[2]", "value": 0, "unit": "%"},
      {"measurement": "removal of the toxin", "setting": "[2]; listed as Intravenous glutathione", "value": 64, "unit": "%"}
    ]}
  ]
}
